From US9572343B2, “Active compound combinations” (BAYER CROPSCIENCE AG, priority 2012, dated 2017)
Where two headings read alike, the source gives them in different places.

Tests used:
Assay type in all cases: in vivo
[1] = test system: Septoria tritici; test: Septoria tritici-test (wheat)/preventive; settings: Table F1
Procedure: (§1) Solvent: 49 parts by weight of N,N-dimethylacetamide Emulsifier: 1 part by weight of alkylaryl polyglycol ether To produce a suitable preparation of active compound, 1 part by weight of active compound or active compound combination is mixed with the stated amounts of solvent and emulsifier, and the concentrate is diluted with water to the desired concentration. To test for preventive activity, young plants are sprayed with the preparation of active compound or active compound combination at the stated rate of application. After the spray coating has been dried, the plants are sprayed with a spore suspension of Septoria tritici.

[2] = test system: Sphaerotheca fuliginea; test: Sphaerotheca test (cucumbers)/preventive; settings: Table G1
Procedure: Solvent: 24.5 parts by weight of acetone • 24.5 parts by weight of dimethylacetamide Emulsifier: 1 part by weight of alkylaryl polyglycol ether To produce a suitable preparation of active compound, 1 part by weight of active compound is mixed with the stated amounts of solvent and emulsifier, and the concentrate is diluted with water to the desired concentration. To test for preventive activity, young plants are sprayed with the preparation of active compound at the stated rate of application. After the spray coating has dried on, the plants are inoculated with an aqueous spore suspension of Sphaerotheca fuliginea.

[3] = test system: Leptosphaeria nodorum; test: Leptosphaeria nodorum test (wheat)/preventive; settings: Table C1
Procedure: as §1, with “Leptosphaeria nodorum.” for “Septoria tritici.”

[4] = test system: Uromyces appendiculatus; test: Uromyces test (beans)/preventive; settings: for pest or weed control at 0.2 ppm: application rate 0.2 ppm a.i.
Procedure: (§2) Solvent: 24.5 parts by weight of acetone • 24.5 parts by weight of dimethylacetamide
(§3) Emulsifier: 1 part by weight of alkylaryl polyglycol ether
(§4) To produce a suitable preparation of active compound, 1 part by weight of active compound is mixed with the stated amounts of solvent and emulsifier, and the concentrate is diluted with water to the desired concentration.
To test for preventive activity, young plants are sprayed with the preparation of active compound at the stated rate of application. After the spray coating has dried on, the plants are inoculated with an aqueous spore suspension of the causal agent of bean rust (Uromyces appendiculatus) and then remain for 1 day in an incubation cabinet at approximately 20° C. and a relative atmospheric humidity of 100%.
The plants are then placed in a greenhouse at approximately 21° C. and a relative atmospheric humidity of approximately 90%.
The test is evaluated 10 days after the inoculation. 0% means an efficacy which corresponds to that of the untreated control, while an efficacy of 100% means that no disease is observed.

[5] = test system: Phakopsora pachyrhizi; test: Phakopsora test (soybeans)/preventive; settings: for pest or weed control at 0.5 ppm: application rate 0.5 ppm a.i.
[6] = test system: Pyrenophora teres; test: Pyrenophora teres-test (barley)/preventive; settings: Table E1; application rate 160 ppm a.i.
Procedure: Solvent: 49 parts by weight of N,N-dimethylacetamide
as §3
To produce a suitable preparation of active compound, 1 part by weight of active compound or active compound combination is mixed with the stated amounts of solvent and emulsifier, and the concentrate is diluted with water to the desired concentration.
To test for preventive activity, young plants are sprayed with the preparation of active compound or active compound combination at the stated rate of application.
After the spray coating has been dried, the plants are sprayed with a spore suspension of Pyrenophora teres. The plants remain for 48 hours in an incubation cabinet at approximately 20° C. and a relative atmospheric humidity of approximately 100%.
The plants are placed in the greenhouse at a temperature of approximately 20° C. and a relative atmospheric humidity of approximately 80%.
The test is evaluated 8 days after the inoculation. 0% means an efficacy which corresponds to that of the untreated control, while an efficacy of 100% means that no disease is observed.

[7] = test system: Alternaria solani; test: Alternaria test (tomatoes)/preventive
Procedure: as §2, §3, §4
To test for preventive activity, young plants are sprayed with the preparation of active compound at the stated rate of application. After the spray coating has dried on, the plants are inoculated with an aqueous spore suspension of Alternaria solani. The plants are then placed in an incubation cabinet at approximately 20° C. and a relative atmospheric humidity of 100%.
The test is evaluated 3 days after the inoculation. 0% means an efficacy which corresponds to that of the untreated control while an efficacy of 100% means that no disease is observed.

[8] = test system: Blumeria graminis f.sp. hordei; test: Blumeria test (barley)/preventive; settings: Table B1; application rate 160 ppm a.i.
Procedure: Solvent: 49 parts by weight of N,N-dimethylacetamide Emulsifier: 1 part by weight of alkylaryl polyglycol ether To produce a suitable preparation of active compound, 1 part by weight of active compound or active compound combination is mixed with the stated amounts of solvent and emulsifier, and the concentrate is diluted with water to the desired concentration. To test for preventive activity, young plants are sprayed with the preparation of active compound or active compound combination at the stated rate of application. After the spray coating has been dried, the plants are dusted with spores of Blumeria graminis f.sp. hordei.

[9] = test system: Venturia inaequalis; test: Venturia test (apples)/preventive; settings: Table I1
Procedure: Solvent: 24.5 parts by weight of acetone • 24.5 parts by weight of dimethylacetamide Emulsifier: 1 part by weight of alkylaryl polyglycol ether To produce a suitable preparation of active compound, 1 part by weight of active compound is mixed with the stated amounts of solvent and emulsifier, and the concentrate is diluted with water to the desired concentration. To test for preventive activity, young plants are sprayed with the preparation of active compound at the stated rate of application.

[10] = Phakopsora pachyrhizi, 168 h, Table D1, read-out: Efficacy in % found

**Q.** `Fc1ccc([C@]2(Cn3cncn3)O[C@H]2c2ccccc2Cl)cc1` (racemic) [1.12, epoxiconazole] was tested. Which “Efficacy in % found” value ([1]; application rate 40 ppm a.i.) did it give?
**A.** Its value is 14%.

**Q.** What about the “Efficacy in % found” value ([2]; application rate 1 ppm a.i.) of the same compound?
**A.** The value was 0%.

**Q.** What about the “Efficacy in % found” value ([3]; application rate 40 ppm a.i.) of the same compound?
**A.** Its value is 60%.

**Q.** And the pest or weed control at 0.5 ppm ([4]; Uromyces appendiculatus, 240 h, Table H2, application rate 0.5 ppm a.i., read-out: Efficacy in % found)?
**A.** The pest or weed control at 0.5 ppm was 30%.

**Q.** What about the pest or weed control at 0.5 ppm [5, 10] of the same compound?
**A.** Its pest or weed control at 0.5 ppm is 23%.

**Q.** Which results are given for `CCN(C)/C=N/c1cc(C)c(Oc2nc(Cl)c(Cl)s2)cc1C` [(Ie)]?
**A.** Efficacy in % found [6]: 57%; Efficacy in % found ([1]; application rate 160 ppm a.i.): 0%; Efficacy in % found ([7]; Table A1, application rate 0.5 ppm a.i.): 0%; Efficacy in % found ([7]; Table A1, application rate 1 ppm a.i.): 16%; Efficacy in % found ([7]; Table A2, application rate 5 ppm a.i.): 0%; Efficacy in % found ([7]; Table A3, application rate 1 ppm a.i.): 52%; Efficacy in % found [8]: 50%; Efficacy in % found ([2]; application rate 0.5 ppm a.i.): 29%; Efficacy in % found ([2]; application rate 1 ppm a.i.): 29%; Efficacy in % found ([2]; application rate 1.25 ppm a.i.): 29%; Efficacy in % found ([9]; application rate 0.25 ppm a.i.): 0%; Efficacy in % found ([9]; application rate 0.5 ppm a.i.): 0%; Efficacy in % found ([9]; application rate 1 ppm a.i.): 0%; Efficacy in % found ([3]; application rate 80 ppm a.i.): 30%; Efficacy in % found ([3]; application rate 160 ppm a.i.): 50%; pest or weed control at 0.25 ppm ([4]; Uromyces appendiculatus, 240 h, Table H1, application rate 0.25 ppm a.i., read-out: Efficacy in % found): 50%; pest or weed control at 0.05 ppm ([4]; Uromyces appendiculatus, 240 h, Table H2, application rate 0.05 ppm a.i., read-out: Efficacy in % found): 0%; pest or weed control at 0.1 ppm ([4]; Uromyces appendiculatus, 240 h, Table H2, application rate 0.1 ppm a.i., read-out: Efficacy in % found): 0%; pest or weed control at 0.2 ppm ([4]; Uromyces appendiculatus, 240 h, Table H2, read-out: Efficacy in % found): 30%; pest or weed control at 0.2 ppm ([4]; Uromyces appendiculatus, 240 h, Table H3, read-out: Efficacy in % found): 11%; pest or weed control at 0.25 ppm ([5]; Phakopsora pachyrhizi, 168 h, Table D1, application rate 0.25 ppm a.i., read-out: Efficacy in % found): 15%; pest or weed control at 0.5 ppm [5, 10]: 35%; pest or weed control at 0.5 ppm ([5]; Phakopsora pachyrhizi, 168 h, Table D2, read-out: Efficacy in % found): 45%; pest or weed control at 0.5 ppm ([5]; Phakopsora pachyrhizi, 168 h, Table D3, read-out: Efficacy in % found): 40%; pest or weed control at 1 ppm ([5]; Phakopsora pachyrhizi, 168 h, Table D3, application rate 1 ppm a.i., read-out: Efficacy in % found): 65%

**Q.** Which results are given for propineb [5.29]?
**A.** Efficacy in % found ([1]; application rate 400 ppm a.i.): 29%; Efficacy in % found ([7]; Table A3, application rate 20 ppm a.i.): 12%; Efficacy in % found ([2]; application rate 20 ppm a.i.): 71%; Efficacy in % found ([9]; application rate 5 ppm a.i.): 14%; Efficacy in % found ([4]; Table H3, application rate 20 ppm a.i.): 56%; Efficacy in % found ([5]; Table D3, application rate 20 ppm a.i.): 0%

**Q.** For `Cn1c(=O)c2sc3c(=O)n(C)c(=O)c3sc2c1=O` [15.61, 2,6-dimethyl-1H,5H-[1,4]dithiino[2,3-c:5,6-c′]dipyrrole-1,3,5,7(2H,6H)-tetrone], which “Efficacy in % found” value ([1]; application rate 800 ppm a.i.) is on record?
**A.** Its value is 0%.

**Q.** What about the “Efficacy in % found” value ([2]; application rate 100 ppm a.i.) of the same compound?
**A.** The value was 69%.

**Q.** And the “Efficacy in % found” value ([9]; application rate 50 ppm a.i.)?
**A.** The value was 84%.

**Q.** And the “Efficacy in % found” value ([3]; application rate 800 ppm a.i.)?
**A.** Its value is 20%.

**Q.** What about the pest or weed control at 100 ppm ([4]; Uromyces appendiculatus, 240 h, Table H3, application rate 100 ppm a.i., read-out: Efficacy in % found) of the same compound?
**A.** Its pest or weed control at 100 ppm is 0%.

**Q.** And the pest or weed control at 100 ppm ([5]; Phakopsora pachyrhizi, 168 h, Table D3, application rate 100 ppm a.i., read-out: Efficacy in % found)?
**A.** Its pest or weed control at 100 ppm is 8%.
